The values that follow come from patent US4192889A, “Ruminant feeds containing trichloroethyl esters of essential amino acids” (E. R. Squibb & Sons, Inc., priority 1979, dated 1980).

Molecules are shown by their SMILES.

Test [1] deals with volatile fatty acid concentrations in the in vitro rumen fermentation. Nature of the test: in vitro rumen fermentation, volatile fatty acids (alfalfa hay:concentrate 3:1). As to conditions: for Acetic / Acetic Propionic (ratio) / Propionic / Total Acids / butyric: Table 10, 0.2 mg/ml. The arrangement: species or system sheep. The text has this: Based on the knowledge of the foregoing, a practical method of testing growth promoters in vitro has been the simulation of conditions in the rumen with fermentation reactions. Such a method comprises adding the test substance to a substrate such as ground hay, corn or mixtures of feed materials. Rumen fluid from a fasted ruminant (bovine, ovine, or caprine) is mixed with a buffer solution and added to a fermentation flask containing the test additive and the substrate. The flask is purged of oxygen, stoppered with a pressure release valve, and incubated at 39°±1° C. for periods up to 48 hours. The change in volatile fatty acid concentration is determined by chemical analysis of the rumen fluid before and after fermentation. As a control, the above experiment is run without a test additive.
(§1) A one gram sample of substrate ground through a 1 mm screen is weighted into 100 ml. lipless beakers equipped with gas-release valves. The substrate consists of alfalfa hay containing approximately 16% protein and a concentrate containing ground corn 60.7%, alfalfa meal 17.5%, molasses 10.0%, soybean meal 5.3%, wheat bran 5.0%, trace mineralized salt 1.0%, limestone 0.5% and Vitamin D 300,000 I.U./ton, mixed in the proportion 3:1. The experimental composition is added to the substrate. 25 ml. of filtered rumen fluid obtained from fasted sheep maintained on feed the same as the above mentioned substrate and 25 ml. of McDougal's buffer solution serve as the inoculum. The buffer solution is as follows:
(§2) The fermentation mixture is flushed with carbon dioxide and the vessel is capped with a gas release valve. The fermentation vessel (beaker) is placed in a water bath and incubated at 39° C.±1° for six hours. The sample is mixed every hour by shaking the beaker.
(§3) At the end of the 6-hour fermentation period the sample is strained through 4 layers of cheesecloth into a sample bottle containing 1 ml. saturated solution of mercuric chloride. The sample is frozen immediately until analyzed for the volatile fatty acids (VFA) (mg/100 ml.). Prior to analysis, each sample is acidified with 30% phosphoric acid and then analyzed by gas chromatography using a column containing 5% nonylphenoxypolyoxyethylene ethanol plus 0.5% phosphoric acid on 100-120 mesh Gas Chrom S. The acids determined are acetic, propionic, butyric, isobutyric, valeric and isovaleric acids. Total VFA is considered as the addition of these acids. The ratio of acetic:propionic (A:P) is obtained by dividing the concentration of acetic acid by that of propionic acid.
The effect of various compounds alone on the volatile fatty acid concentrations was determined by the procedure of Example 3. […] A direct comparison between phenylalanine and phenylalanine trichloroethyl ester is provided.

Test [2] can be described thus: body weight gain and feed efficiency of growing lambs. The class given is in vivo, lambs (wether and ewe). The procedure: A test was conducted to determine if feeding L-phenylalanine 2,2,2-trichloroethyl ester to growing lambs was effective in improving growth and feed efficiency. Wether and ewe lambs were divided into groups of 30 lambs each. They were acclimated to their pens for 2 weeks prior to treatment.
The feed supplied to the animals had the following composition
The test compound in an amount of 0.0055% (50 g/ton) was admixed with the above feed composition.
Body weights and feed consumption were recorded at 0, 2, 4 and 6 weeks. Feed efficiencies were calculated.
The test procedure of Example 9 was followed to test the growth effect and feed efficiency of glycine 2,2,2-trichloroethyl ester on growing lambs. The feed composition of Example 9 was used but contained glycine 2,2,2-trichloroethyl ester in an amount of 0.0044% (40 g/ton). There were 44 lambs in the control group receiving the feed composition without additive and 42 lambs receiving the feed composition containing the amino acid ester.
The test procedure of Example 9 was followed to test the growth effect and feed efficiency of L-phenylalanine 2,2,2-trichloroethyl ester on growing lambs. The feed composition of Example 9 was used but contained 0.0088% (80 g/ton) of this amino acid ester. There were 59 lambs in the control group fed the feed without additive and 58 lambs in the group fed the feed composition containing the test compound.

In test [3] the test system is volatile fatty acid concentrations in fistulated sheep. In words: volatile fatty acid concentrations in vivo in sheep with rumen fistulae (227 g concentrate + 680 g alfalfa hay). On the set-up: species or system sheep (wethers). The following applies: for acetic:propionic ratio (in words) / proportion of propionic acid (in words): fistulated sheep; for Total acids (mg/100 ml.): Table 3, treatment day 7. The text has this:
(§4) Mature sheep (wethers) fitted with permanent rumen fistulae were used to determine the effect of L-phenylalanine, 2,2,2-trichloroethyl ester on volatile fatty acid concentrations in vivo (3 wethers per treatment). The animals were individually penned and fed 227 g. of concentrate (described in Example 3) and 680 g. of alfalfa hay once daily. The test compound was admixed with the concentrate. The sheep were medicated for 7 days. Samples for analysis were obtained before (Day 0) and after treatment (Day 7) approximately 6 hours after feeding.

Test [4] deals with volatile fatty acid concentrations in the in vitro rumen fermentation. Nature of the test: in vitro rumen fermentation, volatile fatty acids (high concentrate substrate, alfalfa hay:concentrate 1:3). On the set-up: species or system sheep. The method, then: as §1, §2, §3
The procedure is described in Example 3. In this example, however, the substrate consisted of alfalfa hay and concentrate in the ratio of 1:3 and inoculum was obtained from sheep fed alfalfa and concentrate in the ratio of 1:3. The concentrate (Fit-N-Fresh)is commercially available from Agway, Inc. and contains grain products, plant protein products, processed grain by-products, cane molasses, minerals, vitamins and a preservative.
The 2,2,2-trichloroethyl ester of glycine was tested in vitro in a manner similar to that described in Example 4.

Test [5] relates to volatile fatty acid concentrations in the rumen of fistulated wethers. Nature of the test: volatile fatty acid concentrations in the rumen of fistulated wethers (454 g concentrate + 454 g chopped mixed hay). The class given is in vivo, sheep (wethers). As to conditions: for Total acids (mg/100 ml): Table 4, treatment day 7.
From the text: as §4
An experiment similar to that described in Example 5 was performed except that the animals (3 per treatment) were fed 454 g. of concentrate (described in Example 3) and 454 g. of chopped mixed (grasses) hay.

Setting [6] is: fistulated wethers, concentrate/mixed hay diet.

Consider `N[C@@H](Cc1ccccc1)C(=O)O` [L-phenylalanine], for which, in test [1], the Acetic is recorded as 95 % of Control, the “Acetic Propionic (ratio)” value is listed as 100 % of Control, the Propionic is 94 % of Control and the “Total Acids” value is given as 96 % of Control. In test [1], the butyric was 97 % of Control.
The matching figures for `N[C@@H](Cc1ccc(Cl)cc1)C(=O)O` (racemic) [p-chlorophenylalanine]: 91 % of Control, 101 % of Control, 91 % of Control, 91 % of Control and 92 % of Control.
On the same counts, the results for `O=CC(Cl)(Cl)Cl` [chloral] are 88 % of Control, 80 % of Control, 110 % of Control, 96 % of Control and 110 % of Control.
Take `NCC(=O)OCC(Cl)(Cl)Cl` [2,2,2-trichloroethyl ester of glycine, aminoacetic acid 2,2,2-trichloroethyl ester]: the “Weight gain” value in test [2] (Table 8, 0.0044% (40 g/ton) in feed, 0-2 wks, control 2.32) is on record as 2.31 kg; in test [2] (Table 8, 0.0044% (40 g/ton) in feed, 0-4 wks, control 5.09) it was 5.13 kg; in test [2] (Table 8, 0.0044% (40 g/ton) in feed, 0-6 wks, control 7.18), 7.37 kg. This compound came in with a Feed efficiency gain/feed in test [2] (Table 8, 0.0044% (40 g/ton) in feed, 0-6 wks, control 0.148) of 0.154 gain/feed. The “Total acid (mg/100 ml)” value in test [3] (Table 6, 500 mg/head/day, treatment) is on record as 731 mg/100 ml. Moreover, the “acetic:propionic ratio (in words)” value in test [3] and in test [4] was “decreasing the acetic:propionic ratio” each time. In test [3], the “proportion of propionic acid (in words)” value is “effective in increasing the proportion of propionic acid”. Moreover, the “propionic acid concentration (in words)” value in test [4] was “effective in increasing propionic acid concentration”.
As for `N[C@@H](Cc1ccccc1)C(=O)OCC(Cl)(Cl)Cl` [L-Phenylalanine 2,2,2-trichloroethyl ester], the “feed efficiency of growing lambs (in words)” value in test [2] (0.0055% (50 g/ton) in the feed) was “improving feed efficiency”. For the same compound, the “gains of growing lambs (in words)” value in test [2] (0.0055% (50 g/ton) in the feed) is recorded as “effective in increasing gains”. Besides, the “Body weight gain” value turned out to be 2.97 kg in test [2] (Table 7, 0.0055% (50 g/ton) in feed, 0-2 wks., control 2.47); 5.82 kg in test [2] (Table 7, 0.0055% (50 g/ton) in feed, 0-4 wks., control 5.80); 9.08 kg in test [2] (Table 7, 0.0055% (50 g/ton) in feed, 0-6 wk., control 8.51). In test [2] (Table 7, 0.0055% (50 g/ton) in feed, 0-6 wks., control 0.190), the “Feed efficiency (gain/unit of feed)” value was 0.196 gain/unit of feed. The “Weight gain” value in test [2] (Table 9, 0.0088% (80 g/ton) in feed, 0-2 wks, control 1.50) is 1.49 kg; in test [2] (Table 9, 0.0088% (80 g/ton) in feed, 0-4 wks, control 4.44), 4.63 kg; in test [2] (Table 9, 0.0088% (80 g/ton) in feed, 0-6 wks, control 7.56), 7.81 kg. Besides, the Feed efficiency gain/feed in test [2] (Table 9, 0.0088% (80 g/ton) in feed, 0-6 wks, control 0.160) came out at 0.168 gain/feed. Moreover, the “Total acids (mg/100 ml.)” value in test [3] (200 mg/head/day) was found to be 667 mg/100 ml; in test [3] (500 mg/head/day) it was 624 mg/100 ml. Besides, the “acetic:propionic ratio (in words)” value in test [3] was “decreased the acetic:propionic ratio”; in test [5] (setting [6]), “decreasing the acetic:propionic ratio”; in test [4], “decreasing the acetic:propionic ratio”. Moreover, the “proportion of propionic acid (in words)” value in test [3] was “increased the proportion of propionic acid”; in test [5] (setting [6]), “effective in increasing the proportion of propionic acid”. Further, in test [1] (at all levels), the “acetic to propionic acid ratio (in words)” value is on record as “decreasing the acetic to propionic acid ratio”. Further, in test [1] (at all levels), the “propionic acid concentrations (in words)” value is on record as “effective in increasing the propionic acid concentrations”. The “Total acids (mg/100 ml)” value came to 663 mg/100 ml in test [5] (200 mg/head/day) and 734 mg/100 ml in test [5] (500 mg/head/day). Also, the “propionic acid concentration (in words)” value in test [4] is on record as “effective in increasing the propionic acid concentration”.
